Reference: patent publication US10167276B2, “Compounds and methods for inhibiting JAK” (Dizal (Jiangsu) Pharmaceutical Co., Ltd., priority 2015, dated 2019)

tested on: STAT3 phosphorylation in NCI-H1975 cells; assay: Cellular pSTAT3 assay in NCI-H1975 cells; format: cell-based; conditions: Homo sapiens, 2 hours with compound
Description: NCI-H1975 cells were plated onto Costar #3701 96 or 384 well tissue-culture treated plates at 5,000 cells/well in 30 uL medium (RPMI, 10% FBS, supplemented with L-glutamine) and incubated overnight at 37° C. in 5% CO2. Phospho STAT3 signal was quantitated utilizing Cell Signaling Technology #7146B Pathscan […] STAT3 antibody pair kit, following manufacturer's instructions.
Cells were dosed with compound and incubated at 37° C. in 5% CO2 for 2 hours, after which medium and compound were aspirated and cells lysed with 35 uL cold 1×Cell Signaling Lysis buffer and chilled at 4° C. for 1-2 hours. Lysate was incubated on STAT3 capture plates at 4° C. overnight, washed 3× with Tris-Buffered Saline with 0.05% Tween® 20 (TBST), then […] STAT3 detection antibody was applied for 2 hours. Following washing with TBST (3×), HRP-secondary antibody was applied for 2 hours. After additional washing, signal was detected using TMB and Stop solution and read at 450 nm using Tecan Infinite M100.

| IC50 [nM] | SMILES |
| --- | --- |
| 509 | COc1nn(C)cc1Nc1ncc(F)c(-c2c[nH]c3c(NC(=O)[C@@H](C)N4CCN(C)C[C@@H]4C)cccc23)n1 [Example 7a, (2R)-2-[(3S)-2,4-dimethylpiperazin-1-yl]-N-(3-{5-fluoro-2-[(3-methoxy-1-methyl-1H-pyrazol-4-yl)amino]pyrimidin-4-yl}-1H-indol-7-yl)propanamide] |
| > 3000 | COc1nn(C)cc1Nc1ncc(F)c(-c2c[nH]c3c(NC(=O)[C@H](C)N4CCN(C)C[C@@H]4C)cccc23)n1 [Example 7b, (2S)-2-[(3S)-2,4-dimethylpiperazin-1-yl]-N-(3-{5-fluoro-2-[(3-methoxy-1-methyl-1H-pyrazol-4-yl)amino]pyrimidin-4-yl}-1H-indol-7-yl)propanamide] |
| 531 | CCOc1nn(C)cc1Nc1ncc(F)c(-c2c[nH]c3c(NC(=O)[C@@H](C)N4CCN(C)C[C@@H]4C)cccc23)n1 [Example 10a, (2R)-2-[(2S)-2,4-dimethylpiperazin-1-yl]-N-(3-{2-[(3-ethoxy-1-methyl-1H-pyrazol-4-yl)amino]-5-fluoropyrimidin-4-yl}-1H-indol-7-yl)propanamide] |

Second part, the compound before the results:

| SMILES | IC50 [nM] |
| --- | --- |
| COc1nn(C)cc1Nc1nccc(-c2c[nH]c3c(NC(=O)[C@@H](C)N4CCN(C)C[C@@H]4C)cccc23)n1 [Example 1, (2R)-2-[(2S)-2,4-dimethylpiperazin-1-yl]-N-(3-{2-[(3-methoxy-1-methyl-1H-pyrazol-4-yl)amino]pyrimidin-4-yl}-1H-indol-7-yl)propanamide] | 643 |
| COc1nn(C)cc1Nc1ncc(F)c(-c2c[nH]c3c(NC(=O)[C@@H](C)N4CCN(C)[C@H](C)C4)cccc23)n1 [Example 2, (2R)-2-[(3R)-3,4-dimethylpiperazin-1-yl]-N-(3-{5-fluoro-2-[(3-methoxy-1-methyl-1H-pyrazol-4-yl)amino]pyrimidin-4-yl}-1H-indol-7-yl)propanamide] | 227 |
| COCCN1CCN([C@H](C)C(=O)Nc2cccc3c(-c4nc(Nc5cn(C)nc5OC)ncc4F)c[nH]c23)CC1 [Example 3, (2R)-N-(3-{5-fluoro-[(3-methoxy-1-methyl-1H-pyrazol-4-yl)amino]pyrimidin-4-yl}-1H-indol-7-yl)-2-[4-(2-methoxyethyl)piperazin-1-yl]propanamide] | 302 |
| CCN1CCN([C@H](C)C(=O)Nc2cccc3c(-c4nc(Nc5cn(C)nc5OC)ncc4F)c[nH]c23)CC1 [Example 4, (2R)-2-(4-ethylpiperazin-1-yl)-N-(3-{5-fluoro-2-[(3-methoxy-1-methyl-1H-pyrazol-4-yl)amino]pyrimidin-4-yl}-1H-indol-7-yl)propanamide] | 98.6 |
| COc1nn(C)cc1Nc1ncc(F)c(-c2c[nH]c3c(NC(=O)[C@@H](C)N4CCN(C)[C@@H](C)C4)cccc23)n1 [Example 5, (2R)-2-[(3S)-3,4-dimethylpiperazin-1-yl]-N-(3-{5-fluoro-2-[(3-methoxy-1-methyl-1H-pyrazol-4-yl)amino]pyrimidin-4-yl}-1H-indol-7-yl)propanamide] | 87.2 |
| COc1nn(C)cc1Nc1ncc(F)c(-c2c[nH]c3c(NC(=O)[C@@H](C)N4CCN(C)C[C@H]4C)cccc23)n1 [Example 6, (2R)-2-[(2R)-2,4-dimethylpiperazin-1-yl]-N-(3-{5-fluoro-2-[(3-methoxy-1-methyl-1H-pyrazol-4-yl)amino]pyrimidin-4-yl}-1H-indol-7-yl)propanamide] | 111 |
| CCOc1nn(C)cc1Nc1ncc(F)c(-c2c[nH]c3c(NC(=O)[C@@H](C)N4CCN(CC)CC4)cccc23)n1 [Example 8, (2R)-N-(3-{2[(3-ethoxy-1-methyl-1H-pyrazol-4-yl)amino]-5-fluoropyrimidin-4-yl}-1H-indol-7-yl)-2-(4-ethylpiperazin-1-yl)propanamide] | 191 |
| CCOc1nn(C)cc1Nc1ncc(F)c(-c2c[nH]c3c(NC(=O)[C@@H](C)N4CCN(CCOC)CC4)cccc23)n1 [Example 9, (2R)-N-(3-{2-[(3-ethoxy-1-methyl-1H-pyrazol-4-yl)amino]-5-fluoropyrimidin-4-yl}-1H-indol-7-yl)-2-[4-(2-methoxyethyl)piperazin-1-yl]propanamide] | 594 |
